Key:
[1] = Noncompetitive inhibition of Bacillus subtilis glutamate racemase
[2] = Inhibition of Bacillus subtilis glutamate racemase
Fusobacterium nucleatum [3] = experiment: Inhibition of Fusobacterium nucleatum recombinant N-terminal hexahistidine-tagged glutamate racemase expressed in Escherichia coli BL21 (DE3) using L-glutamate as substrate at 64 mM by circular dichroism based assay
Fusobacterium nucleatum [4] = experiment: Inhibition of Fusobacterium nucleatum recombinant N-terminal hexahistidine-tagged glutamate racemase expressed in Escherichia coli BL21 (DE3) using L-glutamate as substrate at 40 mM by circular dichroism based assay
[5] = Inhibition of Fusobacterium nucleatum recombinant N-terminal hexahistidine-tagged glutamate racemase expressed in Escherichia coli BL21 (DE3) using L-glutamate as substrate by circular dichroism based assay
Fusobacterium nucleatum [6] = experiment: Inhibition of Fusobacterium nucleatum recombinant N-terminal hexahistidine-tagged glutamate racemase expressed in Escherichia coli BL21 (DE3) using L-glutamate as substrate at 50 mM by circular dichroism based assay
[7] = (§1) Mixed-type inhibition of Fusobacterium nucleatum recombinant N-terminal hexahistidine-tagged glutamate racemase expressed in Escherichia coli BL21 (DE3) using L-glutamate as substrate by Michaelis-Menten plot analysis
Fusobacterium nucleatum [8] = experiment: as §1
[9] = Partial noncompetitive inhibition of Fusobacterium nucleatum recombinant N-terminal hexahistidine-tagged glutamate racemase expressed in Escherichia coli BL21 (DE3) using L-glutamate as substrate by Michaelis-Menten plot analysis

## O=C(O)c1cccc(C(=O)O)n1 [DIPICOLINIC ACID]
[1]
  Ki: 0.092 mM
[2]
  Ki: 2.7 mM

## NC(CCP(=O)(O)O)C(=O)O (racemic)
Fusobacterium nucleatum [3]
  inhibition: 15%

## NC1(C(=O)O)CCS(=O)(=O)CC1
Fusobacterium nucleatum [4]
  inhibition: 30%
[5]
  IC50: 215 mM

## O=C(O)CCP(=O)(O)CCC(=O)O
Fusobacterium nucleatum [6]
  inhibition: 40%
[5]
  IC50: 60.4 mM

## O=C1CCS(=O)(=O)CC1
[7]
  Ki: 18.4 mM
Fusobacterium nucleatum [8]
  alphaKi: 28 mM
[5]
  IC50: 21.2 mM

## NC1(C(=O)O)CCP(=O)(O)CC1 (stereo not drawn)
[9]
  Ki: 3.1 mM
[5]
  IC50: 24.1 mM

## O=C1CCP(=O)(O)CC1
[5]
  IC50: 47.7 mM

— ChEMBL document CHEMBL3120135, “Inhibition of glutamate racemase by substrate-product analogues” (Bioorg Med Chem Lett, 2014)
